Experimental findings from ChEMBL document CHEMBL4814027, “Synthesis and biological evaluation of naphthoquinone phenacylimidazolium derivatives” (Bioorg Med Chem Lett, 2021) are described below.

The term IC50 denotes the concentration needed to halve the response being measured. Read a high IC50 as a need for much substance.

The nature of series [1]: Selectivity ratio of IC50 for mouse L929 cells to IC50 for human A549 cells. Type of series: toxicity. Conditions: L929 cells versus A549 cells, read-out: Ratio IC50.
In series [2] the test system is L929. Description: Cytotoxicity against mouse L929 cells by MTT assay. Background: Tetrazolium assays rely on reduction of a dye to a coloured formazan, in cell work by metabolically active cells.
Series [3] concerns MCF7. Description: Induction of cell cycle arrest in human MCF7 cells assessed as accumulation at G0/G1 phase at 0.1 uM after 48 hrs by flow cytometric analysis (reference value: 66.6 %). Type of series: functional. A general note: In flow cytometry, cells or beads pass a laser one at a time.
Series [4] has as its system MCF7. Description: Induction of apoptosis in human MCF7 cells assessed as late apoptotic cells at 0.1 uM after 48 hrs by Annexin V/PI staining based flow cytometric analysis (reference value: 1.23 %). Type of series: functional.
Series [5] relates to MCF7. Description: Induction of apoptosis in human MCF7 cells assessed as early apoptotic cells at 0.02 uM after 48 hrs by Annexin V/PI staining based flow cytometric analysis (reference value: 5.05 %). Type of series: functional.
Series [6] has as its system MCF7. Description: Induction of apoptosis in human MCF7 cells assessed as late apoptotic cells at 0.02 uM after 48 hrs by Annexin V/PI staining based flow cytometric analysis (reference value: 1.23 %). Type of series: functional.
Series [7] in a line: Selectivity ratio of IC50 for mouse L929 cells to IC50 for human MCF7 cells. Conditions: L929 cells versus MCF7 cells, read-out: Ratio IC50. Type of series: toxicity.
Series [8] deals with MCF7. Description: Induction of apoptosis in human MCF7 cells assessed as early apoptotic cells at 0.2 uM after 48 hrs by Annexin V/PI staining based flow cytometric analysis (reference value: 5.05 %). Type of series: functional.
Series [9] relates to MCF7. Description: Induction of apoptosis in human MCF7 cells assessed as late apoptotic cells at 0.2 uM after 48 hrs by Annexin V/PI staining based flow cytometric analysis (reference value: 1.23 %). Type of series: functional.
Series [10] is described as follows: Selectivity ratio of IC50 for mouse L929 cells to IC50 for human HeLa cells. Type of series: toxicity. Particulars: L929 cells versus HeLa cells, read-out: Ratio IC50.
Series [11] deals with MCF7. Description: Induction of apoptosis in human MCF7 cells assessed as necrotic cells at 0.1 uM after 48 hrs by Annexin V/PI staining based flow cytometric analysis (reference value: 0.017 %). Type of series: functional.
The test system of series [12] is A549. Description: Cytotoxicity against human A549 cells by MTT assay.
Series [13] deals with HeLa. Description: Cytotoxicity against human HeLa cells by MTT assay. Type of series: functional, cell-based.
Series [14] relates to MCF7. Description: Induction of cell cycle arrest in human MCF7 cells assessed as accumulation at S phase at 0.2 uM after 48 hrs by flow cytometric analysis (reference value: 24.4 %). Type of series: functional.
In series [15] the test system is MCF7. Description: Induction of apoptosis in human MCF7 cells assessed as necrotic cells at 0.2 uM after 48 hrs by Annexin V/PI staining based flow cytometric analysis (reference value: 0.017 %). Type of series: functional.
The subject of series [16] is MCF7. Description: Induction of cell cycle arrest in human MCF7 cells assessed as accumulation at G0/G1 phase at 0.02 uM after 48 hrs by flow cytometric analysis (reference value: 66.6 %). Type of series: functional.
The test system of series [17] is MCF7. Description: Induction of apoptosis in human MCF7 cells assessed as increase in cleaved caspase 3 protein expression at 0.02 uM by Western blotting analysis. Type of series: functional, cell-based. In general terms: In western blotting, separated proteins are transferred to a membrane and probed.
Series [18] deals with MCF7. Description: Induction of cell cycle arrest in human MCF7 cells assessed as accumulation at G2/M phase at 0.02 uM after 48 hrs by flow cytometric analysis (reference value: 8.7 %). Type of series: functional.
Series [19] deals with MCF7. Description: Induction of apoptosis in human MCF7 cells assessed as early apoptotic cells at 0.1 uM after 48 hrs by Annexin V/PI staining based flow cytometric analysis (reference value: 5.05 %). Type of series: functional.
Series [20] relates to MCF7. Description: Induction of apoptosis in human MCF7 cells assessed as viable cells at 0.02 uM after 48 hrs by Annexin V/PI staining based flow cytometric analysis (reference value: 93.7 %). Type of series: functional. Conditions: read-out: Activity.
Series [21] relates to MCF7. Description: Induction of cell cycle arrest in human MCF7 cells assessed as accumulation at G2/M phase at 0.1 uM after 48 hrs by flow cytometric analysis (reference value: 8.7 %). Type of series: functional.
Series [22] has as its system MCF7. Description: Induction of cell cycle arrest in human MCF7 cells assessed as accumulation at G0/G1 phase at 0.2 uM after 48 hrs by flow cytometric analysis (reference value: 66.6 %). Type of series: functional.
Series [23] concerns MCF7. Description: Cytotoxicity against human MCF7 cells by MTT assay. Type of series: functional, cell-based.
The test system of series [24] is MCF7. Description: Induction of apoptosis in human MCF7 cells assessed as necrotic cells at 0.02 uM after 48 hrs by Annexin V/PI staining based flow cytometric analysis (reference value: 0.017 %). Type of series: functional.
Series [25] has as its system MCF7. Description: Induction of cell cycle arrest in human MCF7 cells assessed as accumulation at S phase at 0.1 uM after 48 hrs by flow cytometric analysis (reference value: 24.4 %). Type of series: functional.
The subject of series [26] is MCF7. Description: Induction of cell cycle arrest in human MCF7 cells assessed as accumulation at G2/M phase at 0.2 uM after 48 hrs by flow cytometric analysis (reference value: 8.7 %). Type of series: functional.
The test system of series [27] is MCF7. Description: Induction of apoptosis in human MCF7 cells assessed as viable cells at 0.1 uM after 48 hrs by Annexin V/PI staining based flow cytometric analysis (reference value: 93.7 %). Type of series: functional. Conditions: read-out: Activity.
Series [28] concerns MCF7. Description: Induction of cell cycle arrest in human MCF7 cells assessed as accumulation at S phase at 0.02 uM after 48 hrs by flow cytometric analysis (reference value: 24.4 %). Type of series: functional.
Series [29] concerns MCF7. Description: Induction of apoptosis in human MCF7 cells assessed as inhibition of survivin protein expression at 0.02 to 0.2 uM by Western blotting analysis. Conditions: dose 0.02-0.2 µM. Type of series: functional, cell-based.
Series [30] deals with MCF7. Description: Induction of apoptosis in human MCF7 cells assessed as viable cells at 0.2 uM after 48 hrs by Annexin V/PI staining based flow cytometric analysis (reference value: 93.7 %). Type of series: functional. Particulars: read-out: Activity.

The structures appear in SMILES notation. Activity calls are given as the source filed them. The rule behind the calls is not given here.

For the compound `CC(C)Cn1c[n+](CC(=O)c2cccs2)c2c1C(=O)c1ccccc1C2=O.[Br-]`, the selectivity ratio in series [1] came to 61; in series [7] it was 256; in series [10] it was 21.3. Also, the IC50 in series [2] was determined as 12.8 µM; in series [12] it was 0.21 µM; in series [13] it was 0.6 µM; in [23] it was 0.05 µM. The Activity was 52.5% in series [3]; 4.44% in [4]; 46% in series [5]; 6.12% in series [6]; 83.4% in series [8]; 7.77% in [9]. Besides, the Activity is 0.42% in series [11]; 43.7% in [14]; 0.98% in series [15]; 56.6% in series [16]; 13.1% in series [18]; 69.2% in [19]. Moreover, the Activity amounted to 11.4% in series [21]; 46.2% in [22]; 0.33% in series [24]; 35.6% in series [25]; 10% in [26]; 30.1% in series [28]. The outcome in series [17] and in [29] was Active. The viability at 0.02 µM in series [20] was 47.6%. In addition, in series [27], the viability at 0.1 µM was 26%. The viability at 0.2 µM in series [30] is 7.84%.
`CC(C)Cn1c[n+](CC(=O)c2ccc([N+](=O)[O-])cc2)c2c1C(=O)c1ccccc1C2=O`: the selectivity ratio in series [1] was found to be 4.6; in series [7] it was 2; in [10] it was 1.7. Further, the concentration for half-maximal inhibition (IC50) in series [2] is 4.6 µM; in [12], 1 µM; in series [13], 2.7 µM; in [23] it was 2.3 µM.
`Cc1ccc(C(=O)C[n+]2cn(CC(C)C)c3c2C(=O)c2ccccc2C3=O)cc1`: the selectivity ratio in [1] came out at 13.7; in series [7] it was 8.57; in series [10] it was 2.67. Besides, the IC50 in series [2] is 4.8 µM; in series [12], 0.35 µM; in series [13] it was 1.8 µM; in [23], 0.56 µM.
With `O=C(C[n+]1cn(-c2ccccc2)c2c1C(=O)c1ccccc1C2=O)c1ccc([N+](=O)[O-])cc1`, the values for the selectivity ratio in series [1], in [7] and in [10] were 0.77, 0.52 and 1.53, respectively. Moreover, the 50% inhibitory concentration (IC50) in [2] came to 31 µM; in series [12], 40.4 µM; in [13] it was 20.3 µM; in [23], 59.1 µM.
Take `Cn1c[n+](CC(=O)c2ccc(Br)cc2)c2c1C(=O)c1ccccc1C2=O`: the selectivity ratio in [1] was 21.8; in series [7], 2.84; in series [10], 2.49. Further, the IC50 in series [2] was 20.7 µM; in [12], 0.95 µM; in series [13] it was 8.3 µM; in [23], 7.3 µM.
As for `Cn1c[n+](CC(=O)c2ccccc2)c2c1C(=O)c1ccccc1C2=O`, the selectivity ratio amounted to 71.2 in series [1], 80.8 in series [7] and 19.9 in series [10]. Further, the IC50 in series [2] worked out at 29.9 µM; in [12], 0.42 µM; in [13], 1.5 µM; in series [23] it was 0.37 µM.
For the compound `O=C(C[n+]1cn(C2CC2)c2c1C(=O)c1ccccc1C2=O)c1ccc([N+](=O)[O-])cc1`, the selectivity ratio is 0.5 in [1], 0.1 in [7] and 0.27 in series [10]. Moreover, the half-maximal inhibitory concentration (IC50) in [2] was determined as 6.1 µM; in [12] it was 12.3 µM; in [13], 22.2 µM; in [23] it was 60.4 µM.
Consider `COc1ccc(C(=O)C[n+]2cn(C)c3c2C(=O)c2ccccc2C3=O)cc1`, for which the selectivity ratio in series [1] came out at 48.8; in [7] it was 16.5; in [10], 7.31. Also, the IC50 in [2] worked out at 11.7 µM; in series [12] it was 0.24 µM; in series [13], 1.6 µM; in series [23], 0.71 µM.
In the case of `Cn1c[n+](CC(=O)c2ccc([N+](=O)[O-])cc2)c2c1C(=O)c1ccccc1C2=O`, the selectivity ratio in series [1] worked out at 14.8; in [7], 4.39; in series [10] it was 5.26. For the same compound, the IC50 in series [2] is 53.1 µM; in series [12], 3.6 µM; in series [13], 10.1 µM; in [23], 12.1 µM.
For `CCCCn1c[n+](CC(=O)c2ccc([N+](=O)[O-])cc2)c2c1C(=O)c1ccccc1C2=O`, the selectivity ratio in [1] came to 8; in [7] it was 3.23; in series [10], 4.55. Also, the IC50 was 20 µM in series [2], 2.5 µM in series [12], 4.4 µM in [13] and 6.2 µM in series [23].
Regarding `CC(C)Cn1c[n+](CC(=O)c2ccc(Cl)cc2)c2c1C(=O)c1ccccc1C2=O`, the values for the selectivity ratio in series [1], in series [7] and in series [10] were 2.85, 14.2 and 2.47, respectively. Moreover, the IC50 came to 9.4 µM in series [2], 3.3 µM in series [12], 3.8 µM in [13] and 0.66 µM in series [23].
As for `Cn1c[n+](CC(=O)c2cccc([N+](=O)[O-])c2)c2c1C(=O)c1ccccc1C2=O`, the selectivity ratio in series [1] was 16.8; in series [7], 2.86; in series [10] it was 4.86. In addition, the IC50 in series [2] was determined as 36.9 µM; in series [12], 2.2 µM; in [13], 7.6 µM; in [23] it was 12.9 µM.
Turning to `CC(C)Cn1c[n+](CC(=O)c2ccc(Br)cc2)c2c1C(=O)c1ccccc1C2=O`, the selectivity ratio in series [1] is 6.46; in [7], 22.5; in [10], 5.74. Besides, the concentration for half-maximal inhibition (IC50) in [2] is 15.5 µM; in series [12], 2.4 µM; in [13], 2.7 µM; in series [23] it was 0.69 µM.
